As usually defined, the IC50 is the concentration that inhibits the measured activity by half.

These results are taken from US5350757A, “Substituted 1,2,3,4-tetrahydroisoquinolines with angiotensin II receptor antagonist properties” (Warner-Lambert Company, priority 1993, dated 1994).

Experiment [1] deals with AT1. As to the kind of experiment: AT1 binding assay. Particulars: at 10^-5 M concentration.
In experiment [2] the test system is angiotensin type 2 (AT2). As to the kind of experiment: AT2 binding assay (rabbit uterus binding assay). Particulars: AT2 versus AT1. From the text: (§1) A typical compound active in a rabbit uterus binding assay for detecting angiotensin type 2 (AT2) antagonists is compound 6 below. AT2 Binding Assay is a modification of the procedure by D. T. Dudley, et al, Mol. Pharmacol. 38:370 (1990) .

The target of experiment [3] is T1, angiotensin type 2 (AT2) (Oryctolagus cuniculus, UniProt G1T351).
T1 construct: from tissue; host or cells: rabbit uterus
T1 sequence (G1T351 1-363): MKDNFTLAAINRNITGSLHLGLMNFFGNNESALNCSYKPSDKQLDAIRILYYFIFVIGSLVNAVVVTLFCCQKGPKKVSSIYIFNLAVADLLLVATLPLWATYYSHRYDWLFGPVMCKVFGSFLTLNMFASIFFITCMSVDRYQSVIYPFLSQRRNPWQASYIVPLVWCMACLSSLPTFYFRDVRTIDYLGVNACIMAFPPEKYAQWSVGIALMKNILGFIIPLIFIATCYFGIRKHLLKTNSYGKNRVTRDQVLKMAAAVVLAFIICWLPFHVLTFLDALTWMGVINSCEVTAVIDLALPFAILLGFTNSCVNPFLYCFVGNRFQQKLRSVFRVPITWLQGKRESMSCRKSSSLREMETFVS
The experiment is described as follows: AT2 binding assay (rabbit uterus binding assay). To be noted: for IC50: rabbit uterus binding assay.
Description: as §1

Experiment [4] deals with AT-1 receptors. Particulars: cited from earlier work.

The structures appear in SMILES notation.

For `COc1ccc2c(c1OCc1ccccc1)CC(C(=O)O)N(C(=O)C(c1ccccc1)c1ccccc1)C2` (racemic) [Example 20, (RS)-2-(Diphenylacetyl)-1,2,3,4-tetrahydro-6-methoxy-5-(phenylmethoxy)-3-isoquinolinecarboxylic acid], the “AT1 binding assay activity” value in experiment [1] is “inactive”. The “selectivity for the AT2 site” value in experiment [2] was “highly selective for the AT2 site”. Further, in experiment [3], the “binding affinity for the AT2 receptor site, in words” value is “high binding affinity” and the half-maximal inhibitory concentration (IC50) amounted to 2.8 nM.

On to `COc1cc2c(cc1OCc1ccccc1)CC(C(=O)O)N(C(=O)C(c1ccccc1)c1ccccc1)C2` (racemic) [Example 21, (RS)-2-(Diphenylacetyl)-1,2,3,4-tetrahydro-7-methoxy-6-(phenylmethoxy) -3-isoquinolinecarboxylic acid], for which the IC50 in experiment [3] came out at 58.5 nM.

Compound `COc1ccc2c(c1OCCc1ccccc1)CC(C(=O)O)N(C(=O)C(c1ccccc1)c1ccccc1)C2` (racemic) [Example 22, (RS)-2-(Diphenylacetyl)-1,2,3,4-tetrahydro-6-methoxy-5-(2-phenylethoxy)-3-isoquinolinecarboxylic acid] came in with an IC50 in experiment [3] of 8.9 nM.

`COc1ccc2c(c1OCc1ccccc1)CC(C(=O)O)N(C(=O)C(c1ccc(Cl)cc1)c1ccc(Cl)cc1)C2` (racemic) [Example 23, (RS)-2-[Bis(4-chlorophenyl)acetyl]-1,2,3,4-tetrahydro-6-methoxy-5-(phenylmethoxy)-3-isoquinolinecarboxylic acid] came in with a half-maximal inhibitory concentration (IC50) in experiment [3] of 24.2 nM.

Compound `COc1ccc2c(c1OCc1ccccc1)CC(C(=O)O)N(C(=O)C(c1ccccc1)C1CCCC1)C2` (racemic) [Example 24, (RS)-2-(Cyclopentylphenylacetyl)-1,2,3,4-tetrahydro-6-methoxy-5-(phenylmethoxy)-3-isoquinolinecarboxylic acid] came in with a concentration for half-maximal inhibition (IC50) in experiment [3] of 1.6 nM.

With `COc1ccc2c(c1OCc1ccccc1)CC(C(=O)O)N(C(=O)Cc1c(Cl)cccc1Cl)C2` (racemic) [Example 25, (RS)-2-[(2,6-Dichlorophenyl)acetyl]-1,2,3,4-tetrahydro-6-methoxy-5-(phenylmethoxy)-3-isoquinolinecarboxylic acid], the IC50 in experiment [3] is 117 nM.

For `COc1ccc2c(c1OCc1ccccc1)CC(C(=O)O)N(C(=O)N(C)c1ccccc1)C2` (racemic) [Example 26], the IC50 in experiment [3] is 8.4 nM.

As to `COc1ccc(NC(=O)N2Cc3ccc(OC)c(OCc4ccccc4)c3CC2C(=O)O)cc1` (racemic) [Example 27, (RS)-1,2,3,4-Tetrahydro-6-methoxy-2-[[(4-methoxyphenyl)amino]carbonyl]-5-(phenylmethoxy)-3-isoguinolinecarboxylic acid], the IC50 in experiment [3] came out at 1110 nM.

In turn, `CCOC(=O)C1Cc2c(ccc(OC)c2OCc2ccccc2)CN1C(=O)C(c1ccccc1)c1ccccc1` (racemic) [Example 30, (RS)-2-(Diphenylacetyl)-1,2,3,4-tetrahydro-6-methoxy-5-phenylmethoxy-3-isoquinolinecarboxylic acid, ethyl ester] had a concentration for half-maximal inhibition (IC50) in experiment [3] of 151 nM.

Compound `COc1ccc2c(c1OCc1ccc(C(=O)O)cc1)CC(C(=O)O)N(C(=O)C(c1ccccc1)c1ccccc1)C2` (racemic) [Example 33, (RS)-5-(4-Carboxyphenylmethoxy)-2-(diphenylacetyl)-1,2,3,4-tetrahydro-6-methoxy-3-isoquinolinecarboxylic acid] gave an IC50 in experiment [3] of 752 nM.

The compound `COc1ccc(COc2c(OC)ccc3c2CC(C(=O)O)N(C(=O)C(c2ccccc2)c2ccccc2)C3)cc1C` (racemic) [Example 35] came in with a half-inhibitory concentration (IC50) in experiment [3] of 1.9 nM.

As to `CCCCc1nc(Cl)c(CO)n1Cc1ccc(-c2ccccc2-c2nn[nH]n2)cc1` [Dup753], the “selective antagonism of AT-1 receptors” value in experiment [4] was “selectively antagonized”.
